Measured values as given in ChEMBL document CHEMBL4004803, “Syntheses and antibacterial activity of soluble 9-bromo substituted indolizinoquinoline-5,12-dione derivatives” (Eur J Med Chem, 2017).
Converted amounts (≈) assume the structure as drawn.

Columns and labels:
Type in all cases: functional
Staphylococcus aureus [1] = experiment: Antibacterial activity against methicillin-resistant Staphylococcus aureus ATCC 43300 after 20 to 24 hrs by two-fold microdilution method
Staphylococcus aureus [2] = experiment: Antibacterial activity against methicillin-resistant Staphylococcus aureus 212014 clinical isolate after 20 to 24 hrs by two-fold microdilution method
Staphylococcus aureus [3] = experiment: Antibacterial activity against methicillin-resistant Staphylococcus aureus 120827 clinical isolate after 20 to 24 hrs by two-fold microdilution method
Staphylococcus aureus [4] = experiment: Antibacterial activity against methicillin-resistant Staphylococcus aureus 112430 clinical isolate after 20 to 24 hrs by two-fold microdilution method
Staphylococcus aureus [5] = experiment: Antibacterial activity against methicillin-resistant Staphylococcus aureus 20106-2 clinical isolate after 20 to 24 hrs by two-fold microdilution method
Staphylococcus aureus [6] = experiment: Antibacterial activity against methicillin-resistant Staphylococcus aureus 30116-1 clinical isolate after 20 to 24 hrs by two-fold microdilution method
Staphylococcus aureus [7] = experiment: Antibacterial activity against methicillin-resistant Staphylococcus aureus 414244 clinical isolate after 20 to 24 hrs by two-fold microdilution method
Staphylococcus aureus [8] = experiment: Antibacterial activity against methicillin-resistant Staphylococcus aureus 531220 clinical isolate after 20 to 24 hrs by two-fold microdilution method
Staphylococcus aureus [9] = experiment: Antibacterial activity against methicillin-resistant Staphylococcus aureus 1012029 clinical isolate after 20 to 24 hrs by two-fold microdilution method
Staphylococcus aureus [10] = experiment: Antibacterial activity against methicillin-resistant Staphylococcus aureus 724244 clinical isolate after 20 to 24 hrs by two-fold microdilution method
Staphylococcus aureus [11] = experiment: Antibacterial activity against methicillin-resistant Staphylococcus aureus 829034 clinical isolate after 20 to 24 hrs by two-fold microdilution method
Staphylococcus aureus [12] = experiment: Antibacterial activity against methicillin-resistant Staphylococcus aureus 908046 clinical isolate after 20 to 24 hrs by two-fold microdilution method
Staphylococcus aureus [13] = experiment: Antibacterial activity against methicillin-resistant Staphylococcus aureus 919205 clinical isolate after 20 to 24 hrs by two-fold microdilution method
Staphylococcus aureus [14] = experiment: Antibacterial activity against methicillin-resistant Staphylococcus aureus 1026021 clinical isolate after 20 to 24 hrs by two-fold microdilution method
Staphylococcus aureus [15] = experiment: Antibacterial activity against methicillin-resistant Staphylococcus aureus 1211026 clinical isolate after 20 to 24 hrs by two-fold microdilution method
Staphylococcus aureus [16] = experiment: Antibacterial activity against methicillin-resistant Staphylococcus aureus 1103006 clinical isolate after 20 to 24 hrs by two-fold microdilution method
Staphylococcus aureus [17] = experiment: Potency index, ratio of vancomycin MIC50 to test compound MIC50 for methicillin-resistant Staphylococcus aureus
Staphylococcus aureus [18] = experiment: Potency index, ratio of vancomycin MIC90 to test compound MIC90 for methicillin-resistant Staphylococcus aureus
Staphylococcus aureus [19] = experiment: Potency index, ratio of vancomycin MIC to test compound MIC for […] Staphylococcus aureus ATCC 25923

SMILES	MIC (Staphylococcus aureus [1]) [µg/mL]	MIC (Staphylococcus aureus [2]) [µg/mL]	MIC (Staphylococcus aureus [3]) [µg/mL]	MIC (Staphylococcus aureus [4]) [µg/mL]	MIC (Staphylococcus aureus [5]) [µg/mL]	MIC (Staphylococcus aureus [6]) [µg/mL]	MIC (Staphylococcus aureus [7]) [µg/mL]	MIC (Staphylococcus aureus [8]) [µg/mL]	MIC (Staphylococcus aureus [9]) [µg/mL]	MIC (Staphylococcus aureus [10]) [µg/mL]	MIC (Staphylococcus aureus [11]) [µg/mL]	MIC (Staphylococcus aureus [12]) [µg/mL]	MIC (Staphylococcus aureus [13]) [µg/mL]	MIC (Staphylococcus aureus [14]) [µg/mL]	MIC (Staphylococcus aureus [15]) [µg/mL]	MIC (Staphylococcus aureus [16]) [µg/mL]	Ratio (Staphylococcus aureus [17])	Ratio (Staphylococcus aureus [18])	Ratio (Staphylococcus aureus [19])
O=C1c2cccnc2C(=O)c2c1c(C(=O)OCCCCCCN1CCCCC1)c1ccc(Br)cn21	0.063 (≈ 0.117 µM)	≤ 0.0078	0.031 (≈ 0.0576 µM)	0.063 (≈ 0.117 µM)	0.063 (≈ 0.117 µM)	0.063 (≈ 0.117 µM)	0.063 (≈ 0.117 µM)	0.25 (≈ 0.464 µM)	0.063 (≈ 0.117 µM)	0.031 (≈ 0.0576 µM)	0.25 (≈ 0.464 µM)	0.031 (≈ 0.0576 µM)	0.063 (≈ 0.117 µM)	16 (≈ 29.7 µM)	0.031 (≈ 0.0576 µM)	> 16	16	16	–
O=C1c2cccnc2C(=O)c2c1c(C(=O)OCCCCN1CCOCC1)c1ccc(Br)cn21	0.063 (≈ 0.123 µM)	0.125 (≈ 0.244 µM)	0.25 (≈ 0.488 µM)	0.5 (≈ 0.976 µM)	0.5 (≈ 0.976 µM)	0.5 (≈ 0.976 µM)	1 (≈ 1.95 µM)	0.25 (≈ 0.488 µM)	0.25 (≈ 0.488 µM)	0.125 (≈ 0.244 µM)	0.5 (≈ 0.976 µM)	0.125 (≈ 0.244 µM)	1 (≈ 1.95 µM)	16 (≈ 31.2 µM)	0.125 (≈ 0.244 µM)	> 16	–	–	–
O=C1c2cccnc2C(=O)c2c1c(C(=O)OCCCCCN1CCOCC1)c1ccc(Br)cn21	0.031 (≈ 0.0589 µM)	0.063 (≈ 0.12 µM)	≤ 0.0078	≤ 0.0078	0.125 (≈ 0.237 µM)	≤ 0.0078	0.063 (≈ 0.12 µM)	≤ 0.0078	≤ 0.0078	≤ 0.0078	0.125 (≈ 0.237 µM)	0.031 (≈ 0.0589 µM)	0.016 (≈ 0.0304 µM)	16 (≈ 30.4 µM)	≤ 0.0078	16 (≈ 30.4 µM)	–	–	–
CN(C)CCCCCOC(=O)c1c2c(n3cc(Br)ccc13)C(=O)c1ncccc1C2=O	≤ 0.0078	0.063 (≈ 0.13 µM)	0.25 (≈ 0.516 µM)	0.5 (≈ 1.03 µM)	1 (≈ 2.06 µM)	0.5 (≈ 1.03 µM)	0.5 (≈ 1.03 µM)	0.25 (≈ 0.516 µM)	0.25 (≈ 0.516 µM)	0.125 (≈ 0.258 µM)	0.5 (≈ 1.03 µM)	0.063 (≈ 0.13 µM)	0.125 (≈ 0.258 µM)	16 (≈ 33 µM)	0.25 (≈ 0.516 µM)	16 (≈ 33 µM)	–	–	256
O=C1c2cccnc2C(=O)c2c1c(C(=O)OCCCCCCN1CCOCC1)c1ccc(Br)cn21	≤ 0.0078	≤ 0.0078	≤ 0.0078	≤ 0.0078	≤ 0.0078	≤ 0.0078	≤ 0.0078	≤ 0.0078	≤ 0.0078	≤ 0.0078	≤ 0.0078	≤ 0.0078	≤ 0.0078	≤ 0.0078	≤ 0.0078	> 16	–	–	256
CN1CCN(CCCCCCOC(=O)c2c3c(n4cc(Br)ccc24)C(=O)c2ncccc2C3=O)CC1	≤ 0.0078	0.25 (≈ 0.452 µM)	0.016 (≈ 0.0289 µM)	0.125 (≈ 0.226 µM)	0.25 (≈ 0.452 µM)	0.125 (≈ 0.226 µM)	0.063 (≈ 0.114 µM)	≤ 0.0078	0.016 (≈ 0.0289 µM)	0.031 (≈ 0.056 µM)	0.5 (≈ 0.903 µM)	0.063 (≈ 0.114 µM)	0.125 (≈ 0.226 µM)	16 (≈ 28.9 µM)	0.125 (≈ 0.226 µM)	> 16	–	–	256
